According to patent US4579867A, “Stable pharmaceutical compositions of short-acting β-adrenergic receptor blocking agents” (American Hospital Supply Corporation, priority 1984, dated 1986):
Converted amounts (≈) assume the structure as drawn. “And” between values parts separate entries of the source, which are not always exact repeats. Equal values may be shown once. Read-outs that look alike come from different tables or passages of the source.

Assays:
β-adrenergic receptor = test: β-blocking activity and recovery from β-blockade in anesthetized dogs (isoproterenol heart rate response, 3-hour infusion); format: in vivo; details: for Potency: 3-hour infusion, rate adjusted to about 50% isoproterenol inhibition, pentobarbital-anesthetized dogs; for % I (percent inhibition of heart rate response to isoproterenol): end of 3-hour infusion, isoproterenol 0.5 μg/kg; for Recovery Time 50%: 50% recovery from β-blockade after termination of infusion
Description: The duration of β-blockade was determined in vivo using pentobarbital-anesthetized dogs instrumented for measurement of heart rate using a Beckman cardiotachometer triggered electronically by a phasic aortic blood pressure signal. Both vagus nerves were severed in the cervical region and the animals were mechanically ventilated. The experimental design used employed a 3-hour infusion of test compound. Bolus doses of isoproterenol (0.5 μg/kg) were used to assess the degree of β-blockade and recovery from β-blockade after […] of the infusion. The doses were spaced at 10-minute intervals and were given before, during and following the infusion of test compounds. The infusion rate was adjusted so that at the end of the 3-hour infusion period the degree of isoproterenol inhibition averaged about 50% of control.

[1] = Solubility in various vehicles (HPLC); format: physicochemical
Description: Initially, the solubility of the compound was determined in various vehicles. The amount dissolved was measured by HPLC (Table 2). […] Based on this acidic nature, a tartrate buffer was selected. It was foun that the molar ratio of active β-blocking agent to buffer was critical, 1:1 to 3:1 to stabilized product.
Samples were dissolved or diluted with the mobile phase, methanol--pH 3.4 phosphate buffer solution. The resulting solutions were diluted with benzoic acid internal standard solution and chromatographed on a octadecyl silane column with detection at 229 nm. […] The method is linear, quantitative, rugged and reproducible with a sensitivity of 2 ug/ml. Either peak height or peak area ratios can be used for quantitation.

[2] = Comparison of degradation in aqueous solution and in the formulation (forced degradation, HPLC); format: physicochemical; details: 75° C.; for degraded at 168 h: one week
Description: The sulfate salt of the compound of Formula II in aqueous solution when stored at 75° C. degraded about 70% in one week. In contrast, when formulated in the pharmaceutical composition as noted and placed under the same storage conditions, it degraded only about 25%.
The results of this comparison are represented in FIG. 5. Samples for the study were prepared and tested as follows:
b. Aqueous at 75° C.--10 mg of sulfate salt of Formula II were dissolved in 100 mL of deionized water. A 2 mL portion of this solution was transferred to a vial and placed in a 75° C. oven. A series of vials were prepared and evaluated at various intervals. Each time 2 mL of mobile phase was added to the vial (final conc. 50 μg/mL) for subsequent HPLC evaluation. The results are plotted as curve B in FIG. 5.
c. Forced Degradation of the Formulation was carried out using a solution containing the sulfate salt of Formula II, 100 mg/mL, in Acetate Buffer (0.35M) containing 20% of Propylene Glycol:Ethanol (50:50) having a pH 3.17. The formulation solution was divided into 2 parts, placed in 55° C. and 75° C. ovens and tested periodically. To evaluate the formulation, the solution was diluted 1 mL to 100 mL of mobile phase, then 5 mL to 100 mL in mobile phase (final conc.--50 μg/mL) for subsequent HPLC evaluation.
The rates of decomposition were monitored by HPLC and compared to the respective initial concentrations at 220 nm. In order to insure that the peak was that of the sulfate salt and not an impurity, excipient or product of decomposition, the peak was scanned using a variable wavelength detector ([…]). Using the Perkin-Elmer LC-75 Detector Stop Flow System described below:
A 70 μL portion of the sulfate salt degraded samples were injected manually into the HPLC L-75 equipped with a variable wavelength detector, programmed to scan wavelengths from 200 to 320 nm. When the sulfate salt reached the detector cell, the flow of mobile phase was stopped and the scan initiated from 200 to 320 nm. In this manner, only the peak corresponding to the sulfate salt was measured.

[3] = Shelf life / storage stability of solutions; format: physicochemical; details: within a week; room temperature; without stabilization; read-out: potency loss
[4] = Kinetic degradation study in solution at 75° C.; format: physicochemical
Description: In order to determine the pH at which the formulation would show maximum stability, a kinetic degradation study was employed. pH of solutions ranging from 2-4, containing 0.1M each of the compound of formula II and tartrate buffer were stored at 75° C. At various time intervals, samples were taken and assayed for the compound.
The kinetic data obtained was plotted as a log of drug concentration versus time. The apparent first-order rate constants were calculated from the slopes of the linear regression lines fitted to log (C)=log (Co)[…] where C is drug concentration at time t, Co is the initial drug concentration and k is the apparent first-order rate constant.
The logarithm of the potency versus time in all cases produced linear plots. The apparent first-order rate constants were calculated from the slopes of the linear regression lines (not shown) and are presented in FIG. 1.
The ratio of the two organic vehicles, namely propylene glycol and alcohol were determined by making solutions of the compound of formula II in the vehicle and testing the stability at 75° C. Samples were removed after specified times and measured for potency.
FIG. 3 illustrates the stability of the compound of formula II in hydroalcoholic solution buffered at pH 3 by sodium tartrate. An identical stability study was conducted with a solution without buffering agent (FIG. 4).

pKa = format: physicochemical

CCOC(=O)NCC(C)(C)NCC(O)COC(=O)c1ccccc1F (centres unmarked) [Compound 21]
Potency (β-adrenergic receptor): 6.5 ± 1.8 mg/kg/180 min

CC(C)(CNC(N)=O)NCC(O)COC(=O)c1ccccc1F (centres unmarked) [Compound 17]
Potency (β-adrenergic receptor): 0.7 mg/kg/180 min

CC(C)(CNC(N)=O)NCC(O)COC(=O)c1ccccc1F (centres unmarked)
Solubility ([1]; Alcohol USP (EtOH)): 2.24 % w/w
Solubility ([1]; Polyethylene Glycol 200 USP (PEG)): 2.64 % w/w
Solubility ([1]; Propylene Glycol USP (PG)): 3.47 % w/w
Solubility ([1]; WFI (5%), EtOH (45%), PEG (50%)): 5.21 % w/w
Solubility ([1]; WFI (5%), EtOH (45%), PG (50%)): 7.20 % w/w
Solubility ([1]; WFI (5%), EtOH (95%)): 7.50 % w/w
Solubility ([1]; WFI (5%), PEG (95%)): 3.83 % w/w
Solubility ([1]; WFI (5%), PG (95%), read-out: Solubility): 56 mg/mL (≈ 171 mM)
Solubility ([1]; Water for Injection USP (WFI), read-out: Solubility): 507 mg/mL (≈ 1550 mM)
degraded at 168 h ([2]; formulated in the pharmaceutical composition): ~25%
increase in stability ([2]; formulated vs aqueous solution): three fold increase in stability
degraded at 168 h ([2]; aqueous solution (deionized water), aqueous solution): ~70%

CC(C)NCC(O)COc1cccc2ccccc12 (centres unmarked) [Propranolol, reference compound]
Potency (β-adrenergic receptor): 0.2 mg/kg/180 min
% I (percent inhibition of heart rate response to isoproterenol) (β-adrenergic receptor; dogs): 67 ± 6%

CC(C)(CNC(=O)N1CCOCC1)NCC(O)COC(=O)c1ccc(O)c(O)c1 (centres unmarked) [Compound 12]
Potency (β-adrenergic receptor): 0.08 mg/kg/180 min

CC(=O)NCC(C)(C)NCC(O)COC(=O)c1ccccc1F (centres unmarked) [Compound 4]
Potency (β-adrenergic receptor): 2.7 mg/kg/180 min

CC(C)C(=O)NCC(C)(C)NCC(O)COC(=O)c1ccccc1F (centres unmarked) [Compound 5]
Potency (β-adrenergic receptor): 0.6 mg/kg/180 min

CC(C)(CNC(=O)C1CCCCC1)NCC(O)COC(=O)c1ccccc1F (centres unmarked) [Compound 6]
Potency (β-adrenergic receptor): 1.4 mg/kg/180 min

O=C(CC1CCCCC1)NCCNCC(O)COC(=O)c1ccccc1F (centres unmarked) [Compound 8]
Recovery Time 50% (β-adrenergic receptor; dogs): 3,4 min
% I (percent inhibition of heart rate response to isoproterenol) (β-adrenergic receptor; dogs): 43% and 55%

CC(C)(CNC(N)=O)NCC(O)COC(=O)c1ccccc1F (centres unmarked) [compound of formula II, N-(1,1-Dimethyl-2-ureidoethyl)-2-hydroxy-3-(O-fluorobenzoyloxy) propylamine]
degraded at 168 h [3]: 10%
propylene glycol to alcohol ratio and degradation ([4]; FIG. 2): 1:1 ratio of the two substances minimizes degradation
rate of degradation (slope) ([4]; hydroalcoholic solution (15% propylene glycol, 15% alcohol) buffered at pH 3 by sodium tartrate): 0.0387 day⁻¹
rate of degradation (slope) ([4]; hydroalcoholic solution (15% propylene glycol, 15% alcohol), unbuffered): 0.0709 day⁻¹
stability of buffered relative to unbuffered preparation ([4]; pH 3 sodium tartrate vs no buffer): approximately twice as stable
pKa (pKa): 8.17

CC(C)(CNC(=O)C1CCCCC1)NCC(O)COC(=O)c1ccccc1F (centres unmarked) [Compound 7]
Potency (β-adrenergic receptor): 1.8 mg/kg/180 min
Recovery Time 50% (β-adrenergic receptor; dogs): 8 min
Recovery Time 80% (β-adrenergic receptor; 80% recovery from β-blockade after termination of infusion, dogs): 19 min
% I (percent inhibition of heart rate response to isoproterenol) (β-adrenergic receptor; dogs): 68%
